According to patent publication US9233961B2, “Compounds and compositions for the treatment of parasitic diseases” (Novartis AG, priority 2013, dated 2016):
Read-outs that look alike come from different tables or passages of the source.

How the values were obtained:
[1] = system: Leishmania donovani axenic amastigote parasites; assay: Leishmania donovani axenic amastigote proliferation assay; type: cell-based; conditions: axenic amastigotes in vitro, read-out: L. donovani amastigotes EC50
Protocol: Leishmania Donovani Axenic Amastigote Proliferation Assay
Leishmania donovani axenic amastigote parasites are grown at 37° C., 5% CO2 in media made of RPMI 1640, 4 mM L-glutamine, 20% heat inactivated FBS, 100 units/ml of penicillin and 100 μg/ml of streptomycin, 23 μM Folic Acid, 100 μM Adenosine, 22 mM D-glucose, 25 mM MES. The pH of media is adjusted to 5.5 at 37° C. using HCl. 20 μL of media is first dispensed into 384 well plates and 100 nL of the compounds of invention in DMSO are added to the plate wells. At the same time control compounds and DMSO are added to plates to serve as the positive and negative controls, respectively. 40 μL of parasite culture (9600 parasites) are then added to the plate wells. The plates are then placed into incubators. After 2 day incubation, 20 μL of Cell TiterGlo (Promega) is added to the plate wells. The luminescence signal of each well is measured using the Envision reader (Perkin Elmer). The percentage inhibition of 50%, EC50, is calculated for each of the compounds.

[2] = system: L. donovani HU3 strain in mouse peritoneal macrophages; assay: Assay for proliferation of Leishmania parasites in mouse peritoneal macrophages; type: cell-based, Leishmania donovani; conditions: Leishmania donovani, Peritoneal macrophage
Description: Assay for Proliferation of Leishmania Parasites
The activity of a compound according to the present invention for inhibition of parasitemai can be assessed by the parasite proliferation assay. The assay measures the increase in the parasite number in the assayed plate well using a DNA intercalating dye, SYBR Green I® dye (INVITROGEN) to stain Leishmania cell nuclei. It is understood that the assays illustrate the invention without in any way limiting the scope of the invention.
L. donovani HU3 strain is propagated by infecting BALB/c mice through tail vein injection with 10^7 Leishmania parasites. Infected mice are allowed to develop infection during 9-11 weeks post-infection. During this time, the parasites accumulate in the infected mouse spleens to large numbers, and the infected mice serve as the source of parasites for the in vitro measurement of compound efficacies. To assay a compound for anti-leishmanial activity, peritoneal macrophages isolated from non-infected BALB/c mice are seeded into 384-well plates at density 2×10^4 macrophages per well in […] of medium (RPMI 1640, 10% […], 10 mM HEPES, 1 mM sodium pyruvate, 1% Pen/Strep). Subsequently, the seeded plates are placed into an incubator set to maintain 37° C. temperature and atmosphere with 5% CO2. The next day, Leishmania parasites are isolated from the spleens of mice infected for 9-11 weeks and 4×10^5 isolated parasites in […] of the above media are added to each plate well. Plates are then returned into incubators and infection is allowed to proceed for 24 hours. After the infection of macrophages is completed, […] of compounds of the invention in the above medium, which also contains 5% DMSO, are added to plate wells containing infected macrophages. At the same time control compounds (miltefosine and amphotericin B) and DMSO are added to plates to serve as the positive and negative controls, respectively. After the compound addition, the plates are returned into incubator and cells infected with parasites are cultured for 5 days. At the end of cultivation, […] of 8% paraformaldehyde is added to plate wells and incubated for 15 min at room temperature. Following the incubation, the paraformaldehyde from plate wells is aspirated, and […] of PBS containing 0.2% Triton X-100 is added to wells. After 15 min incubation, the solution is aspirated from wells again, and replaced with SybrGreen Dye solution in PBS (1:125,000 dilution). Infected cells are imaged with Evotec Opera high-content microscope, and the number of parasites in well is determined by counting parasite nuclei visualized by staining with SybrGreen dye. The percentage inhibition of 50%, EC50, is calculated for each compound.
The inhibitory efficacy of the compounds of the invention in delaying the proliferation of L. donovani in mouse peritoneal macrophages is provided in Table I, infra.

[3] = read-out: L. donavani Macrophage EC50
[4] = read-out: L. donavani Macrophage EC50 (μM)

Row | SMILES | EC50 [1] | EC50 [2, 3] | EC50 [2, 4]
1 | Cc1cnc2nc(-c3cc(NC(=O)c4cncc(Cl)n4)ccc3Cl)[nH]c2c1 [Compound 127] | 1.2 µM | 4.8 µM | 
2 | Cc1cnc2nc(-c3cc(NC(=O)c4cncc(C#N)c4)ccc3Cl)[nH]c2c1 [Compound 101] | 13.5 µM | > 50 µM | 
3 | O=C(Nc1ccc(-c2cnc3nc(-c4cc(NC(=O)c5ccco5)ccc4Cl)[nH]c3c2)cc1)NC1CC1 [Compound 45] | 1.47 µM | 3.4 µM | 
4 | Cc1cnc2nc(-c3cc(NC(=O)Nc4ccc(C(F)(F)F)cc4)ccc3Cl)[nH]c2c1 [Compound 248] | > 25 µM | 23.1 µM | 
5 | Cc1cnc2nc(-c3cc(NC(=O)N4CC[C@H](F)C4)ccc3Cl)[nH]c2c1 [Compound 235] | 3.5 µM | 8.8 µM | 
6 | CCOc1cc(C(=O)Nc2ccc(Cl)c(-c3nc4ncc(C)cc4[nH]3)c2)ccn1 [Compound 93] | > 25 µM | > 35.5 µM | 
7 | O=C(Nc1ccc(Cl)c(-c2nc3ncc(-c4ccc(F)cc4)cc3[nH]2)c1)N1CCCC1 [Compound 293] | 0.38 µM | 2.47 µM | 
8 | CC(=O)Nc1ccc(-c2cnc3nc(-c4cc(NC(=O)c5ccco5)ccc4Cl)[nH]c3c2)cc1 [Compound 18] | 0.3 µM | 1.48 µM | 
9 | O=C(Nc1ccc(F)c(-c2nc3ncc(-c4cnn(C5CCNCC5)c4)cc3[nH]2)c1)N1CCCC1 [Compound 298] | > 25 µM | > 50 µM | 
10 | CN(C)c1ccc(-c2cnc3nc(-c4cc(NC(=O)Nc5ccc(C(F)(F)F)cc5)ccc4F)oc3c2)cn1 [Compound 403] | 17.4 µM | > 50 µM | 
11 | CN(C)c1ccc(F)c(-c2nc3ncc(-c4ccc(OCCN5CCOCC5)cc4)cc3o2)c1 [Example 420, 4-Fluoro-N,N-dimethyl-3-(6-{4-[2-(morpholin-4-yl)ethoxy]phenyl}-[1,3]oxazolo[4,5-b]pyridin-2-yl)aniline] | > 25 µM |  | > 50 µM
12 | O=C(Nc1ccc(Cl)c(-c2nc3ncc(-c4ccc(OCCN5CCCC5)cc4)cc3[nH]2)c1)c1ccco1 [Compound 55] | 2.06 µM | 6.7 µM | 
13 | CNc1ccc(-c2cnc3nc(-c4cc(NC(=O)c5ccc(CN(C)C)o5)ccc4Cl)[nH]c3c2)cc1 [Compound 347] | > 25 µM | 7.2 µM | 
14 | Cc1cnc2nc(-c3cc(NC(=O)c4nc(C)oc4C(F)(F)F)ccc3Cl)[nH]c2c1 [Compound 176] | > 25 µM | > 50 µM | 
15 | O=C(Nc1ccc(Cl)c(-c2nc3ncc(C(F)(F)F)cc3[nH]2)c1)c1ccco1 [Example 276, N-{4-Chloro-3-[6-(trifluoromethyl)-1H-imidazo[4,5-b]pyridin-2-yl]phenyl}furan-2-carboxamide] | 1.56 µM | 6 µM | 
16 | O=C(Nc1ccc(F)c(-c2nc3ncc(Br)cc3[nH]2)c1)c1cc[nH]n1 [Compound 368] | 18.9 µM | > 50 µM | 
17 | C[Si](C)(C)CCOCn1cnc(-c2cnc3nc(-c4cc(NC(=O)N5CCCC5)ccc4Cl)[nH]c3c2)c1 [Compound 306] | 0.207 µM | 0.181 µM | 
18 | Nc1ccc(-c2cnc3nc(-c4cc(NC(=O)c5ccco5)ccc4Cl)[nH]c3c2)cn1 [Compound 24] | 0.165 µM | 2.89 µM | 
19 | Cc1cnc2nc(-c3cc(NC(=O)c4ccnc([S+](C)[O-])n4)ccc3Cl)[nH]c2c1 (stereo not shown) [Compound 154] | > 24.1 µM | > 50 µM | 
20 | CN(C)CCn1c(-c2cc(NC(=O)N3CCCC3)ccc2Cl)nc2ncc(Br)cc21 [Compound 387] | > 25 µM | > 50 µM | 
21 | CC(C)(C)C(=O)Nc1ccc(F)c(-c2nc3ncc(Cl)cc3[nH]2)c1 [Compound 358] | > 25 µM | > 50 µM | 
22 | CNC(=O)c1ccc(-c2cnc3nc(-c4cc(NC(=O)c5ccco5)ccc4Cl)[nH]c3c2)cn1 [Compound 54] | 0.226 µM | 0.272 µM | 

Row | SMILES | EC50 [1] | EC50 [2, 3] | EC50 [2, 4]
23 | Cc1cnc2nc(-c3cc(NC(=O)Cc4cc(C)no4)ccc3Cl)[nH]c2c1 [Compound 88] | > 25 µM | > 50 µM | 
24 | CN1CCN(CCOc2ccc(-c3cnc4nc(-c5cc(NC(=O)N6CCCC6)ccc5F)[nH]c4c3)cc2)CC1 [Compound 311] | > 25 µM | > 6.9 µM | 
25 | O=C1NC(=O)C(c2ccc(-c3cnc4nc(-c5cc(NC(=O)c6ccco6)ccc5Cl)[nH]c4c3)cc2)N1 (stereo not shown) [Compound 42] | 1.39 µM | 4 µM | 
26 | O=C(Nc1ccc(Cl)c(-c2nc3ncc(-c4ccc5c(c4)OCO5)cc3[nH]2)c1)c1ccco1 [Compound 27] | 2.66 µM | 24.4 µM | 
27 | Cc1cnc2nc(-c3cc(NC(=O)c4ncco4)ccc3Cl)[nH]c2c1 [Compound 104] | > 25 µM | > 50 µM | 
28 | Cc1cc(COc2ccc(-c3cnc4nc(-c5cc(NC(=O)c6ccco6)ccc5Cl)[nH]c4c3)cc2)no1 [Compound 44] | 0.283 µM | 0.82 µM | 
29 | O=C(Nc1ccc(F)c(-c2nc3ncc(-c4ccccc4)cc3[nH]2)c1)N1CCCC1 [Example 309, N-(4-fluoro-3-{6-phenyl-1H-imidazo[4,5-b]pyridin-2-yl}phenyl)pyrrolidine-1-carboxamide] | 1.97 µM | 4.5 µM | 
30 | Cc1cnc2nc(-c3cc(NC(=O)c4ccnc(C)c4)ccc3Cl)[nH]c2c1 [Compound 188] | 2.26 µM | 11.6 µM | 
31 | Cc1cc2[nH]c(-c3cc(NC(=O)c4ccco4)ccc3Cl)nc2nc1C [Compound 5] | > 25 µM | 49.4 µM | 
32 | CNc1ccc(-c2cnc3nc(-c4cc(NC(=O)Nc5ccc(C(F)(F)F)cc5)ccc4F)oc3c2)cc1 [Compound 393] | > 12.5 µM | > 50 µM | 
33 | O=C(Nc1ccc(C(F)(F)F)cc1)Nc1ccc(F)c(-c2nc3ncc(Cl)cc3[nH]2)c1 [Compound 356] | > 25 µM | 19.6 µM | 
34 | O=C(Nc1ccc(Cl)c(-c2nc3ncc(-c4ccc(OCCn5ccnc5)cc4)cc3[nH]2)c1)c1ccco1 [Compound 71] | 4 µM | 1.86 µM | 
35 | CC(C)OC(=O)Nc1ccc(Cl)c(-c2nc3ncc(-c4ccccc4NC(=O)OC(C)C)cc3n2C(=O)OC(C)C)c1 [Compound 336] | 1.89 µM | 2.18 µM | 
36 | Cc1cnc2nc(-c3cc(NC(=O)c4c(C)noc4C)ccc3Cl)[nH]c2c1 [Compound 105] | > 25 µM | > 50 µM | 
37 | O=C(Nc1ccc(F)c(-c2nc3ncc(Br)cc3[nH]2)c1)N1CCOCC1 [Compound 365] | 19.8 µM | > 50 µM | 
38 | O=C(Nc1ccc(F)c(-c2nc3ncc(Br)cc3o2)c1)c1cocn1 [Compound 410] | > 25 µM | > 50 µM | 
39 | [2H]C([2H])([2H])C([2H])([2H])OC(=O)Nc1ccc(Cl)c(-c2nc3ncc(C)cc3[nH]2)c1 [Compound 215] | 13.3 µM | 18.1 µM | 
40 | O=C(Nc1ccc(F)c(-c2nc3ncc(-c4ccccc4)cc3o2)c1)N1CCCC1 [Example 415, N-(4-fluoro-3-{6-phenyl-[1,3]oxazolo[4,5-b]pyridin-2-yl}phenyl)pyrrolidine-1-carboxamide] | 0.4 µM |  | 0.1 µM
41 | Cc1cnc2nc(-c3cc(NC(=O)C4CCO4)ccc3Cl)[nH]c2c1 (stereo not shown) [Compound 103] | > 25 µM | > 50 µM | 
42 | CN1CCN(c2ccc(-c3cnc4nc(-c5cc(NC(=O)c6ccco6)ccc5Cl)[nH]c4c3)cc2)CC1 [Compound 22] | 19 µM | 4.6 µM | 
43 | O=C(Nc1ccc(Cl)c(-c2nc3ncc(C(F)(F)F)cc3[nH]2)c1)c1cncc(F)c1 [Compound 283] | 4 µM | 11.4 µM | 
44 | COc1ccc(C(=O)Nc2ccc(Cl)c(-c3nc4ncc(C)cc4[nH]3)c2)cc1 [Compound 211] | > 22.8 µM | > 27.9 µM | 
